Test results from patent US20070020713A1, “Antibodies to the fuel oxygenate mtbe and use thereof in immunoassays” (priority 2003, published 2007).
Where a name gives a salt, the structure may show the parent alone.

Tested on: anti-MTBE antibody prepared in Example 1 (anti-MTBE/7-methoxy-3,7-dimethyloctanal antibody)
Assay: Anti-MTBE monoclonal antibody cross-reactivity, indirect competitive ELISA
Format: binding
Settings: for IC50 (concentration of analyte required to inhibit the maximum assay signal B0 by 50%): B/B0=50%, read from FIG. 4

SMILES | IC50 (concentration of analyte required to inhibit the maximum assay signal B0 by 50%) [µg/mL] | cross-reactivity of the antibody (FIG. 4)
COC(C)(C)C [MTBE, methyl tert-butyl ether] | ~10 | –
CC(C)(C)O [TBA, tert-butyl alcohol] | ~180 | –
CCC(C)(C)OC [TAME, methyl tert-amyl ether] | ~10 | –
CO [methanol] | – | no significant cross-reactivity
CC(C)(C)OC=O [TBF, tert-butyl formate] | ~60 | –
